Patent publication US11306063B2, “Heterocyclic naphthoquinones derivatives for use in the treatment of cancers including Cushing disease” (Commissariat a l'Energie Atomique et aux Energies …, priority 2016, dated 2022)
Read-outs that look alike come from different tables or passages of the source.

Tests used:
[1] = test system: MESSA DX5 cells; test: Cytotoxicity assay (PrestoBlue cell viability), MESSA DX5; assay type: cell-based, human; conditions: Homo sapiens, MES-SA/Dx5; 48 hours treatment; chemoresistant line
Method: (§1) Messa, Messa DX5, HCT116, HEK-293, PC-3, LNCaP, HCC827 and H1975 cell lines are issued from the American Type Culture Collection (ATCC).
(§2) Messa, Messa DX5 and HCT116 were maintained in McCoy's supplemented with 10% fetal bovine serum, and 1% penicillin/streptomycin. PC-3, LNCaP cells were maintained in RPMI medium supplemented with 10% fetal bovine serum, and 1% penicilin/streptomycin and in the case of Messa DX5: 500 nM Doxorubicin was added to maintain selection pressure. HEK293 were maintained in DMEM medium supplemented with 10% fetal bovine serum, and 1% penicillin/streptomycin. Cells were maintained at 37° C. with 5% CO2, 95% air, and humid atmosphere. In the case of hormonal dependent LNCaP cells, 2 μM DiHydroTestosterone (DHT) was added or not—depending on the type of biological assay—for the same incubation period as compounds.
(§3) For cytotoxicity assays, cells were seeded in 96-well microplates 24 hours before the addition of increasing concentrations of each compound in the culture medium. Cell viability was analyzed 48 hours following addition of each compound through the monitoring of mitochondrial […] activity using PrestoBlue® Cell Viability Reagent (Invitrogen; #A-13261). Paclitaxel was used as a control which is cytotoxic on various cancerous cells although not on chemoresistant MESSA DX5 lineage.

[2] = test system: MESSA cells; test: Cytotoxicity assay (PrestoBlue cell viability), MESSA; assay type: cell-based; conditions: Homo sapiens, MES-SA; 48 hours treatment; concentration inducing 50% cell mortality
Method: as §1, §2, §3

[3] = test system: LNCaP cells; test: Cytotoxicity assay (PrestoBlue cell viability), LNCaP; assay type: cell-based; conditions: Homo sapiens, 48 hours treatment
Method: as §1, §2, §3

[4] = test system: H1975 cells; test: Cytotoxicity assay (PrestoBlue cell viability), H1975; assay type: cell-based, human; conditions: Homo sapiens, NCI-H1975, 48 h
Method: as §1, §3

[5] = test system: PC-3 cells; test: Cytotoxicity assay (PrestoBlue cell viability), PC-3; assay type: cell-based; conditions: Homo sapiens, 48 hours treatment
Method: as §1, §2, §3

[6] = test system: HEK293 cells; test: Cytotoxicity assay (PrestoBlue cell viability), HEK293; assay type: cell-based; conditions: Homo sapiens, 48 hours treatment
Method: as §1, §2, §3

[7] = biological target: T1, USP8^CD (purified catalytic domain of USP8) (Homo sapiens, UniProt P40818); test: Inhibition of purified USP8^CD enzymatic activity (Ub-AMC or Ub-Rho substrate); assay type: biochemical; conditions: for inhibition at 1 µM: 1 μM compound; for inhibition at 5 µM: 5 μM compound; for IC50: read-out: IC50 USP8 CD
T1 construct: the purified catalytic domain of USP8 (USP8^CD, in-house purified); made in house; host or cells: E. coli BL21 Gold
T1 sequence (P40818 777-1109 limits assumed): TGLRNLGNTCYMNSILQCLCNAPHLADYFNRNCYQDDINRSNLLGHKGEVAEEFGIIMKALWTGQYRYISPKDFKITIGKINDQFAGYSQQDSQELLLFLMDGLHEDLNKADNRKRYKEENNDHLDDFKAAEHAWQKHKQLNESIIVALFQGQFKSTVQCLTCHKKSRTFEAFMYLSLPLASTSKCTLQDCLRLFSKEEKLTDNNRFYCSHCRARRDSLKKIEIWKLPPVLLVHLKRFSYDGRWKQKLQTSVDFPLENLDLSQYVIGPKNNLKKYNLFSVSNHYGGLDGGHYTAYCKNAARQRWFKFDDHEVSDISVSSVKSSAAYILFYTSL
Procedure, shortened: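 His-tagged catalytic domain expressed in E. coli and purified by Ni affinity and gel filtration. Assayed in 50 mM HEPES pH 7.6 or 40 mM Tris pH 7.4 buffer with 1 mM DTT; compound added just before Ub-AMC or Ub-Rho substrate, fluorescence kinetics followed 20 or 30 min. Median of duplicates.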

[8] = biological target: T2, USP2^CD (purified catalytic domain of USP2) (Homo sapiens, UniProt O75604); test: Inhibition of purified USP2^CD enzymatic activity (Ub-AMC or Ub-Rho substrate); assay type: biochemical; conditions: for inhibition at 1 µM: 1 μM compound; for inhibition at 5 µM: 5 μM compound; for IC50: read-out: IC50 USP2 CD
T2 construct: The purified catalytic domain of USP2 (USP2^CD, in-house purified); His; made in house; host or cells: E. coli BL21 Gold
T2 sequence (O75604 267-599 limits assumed): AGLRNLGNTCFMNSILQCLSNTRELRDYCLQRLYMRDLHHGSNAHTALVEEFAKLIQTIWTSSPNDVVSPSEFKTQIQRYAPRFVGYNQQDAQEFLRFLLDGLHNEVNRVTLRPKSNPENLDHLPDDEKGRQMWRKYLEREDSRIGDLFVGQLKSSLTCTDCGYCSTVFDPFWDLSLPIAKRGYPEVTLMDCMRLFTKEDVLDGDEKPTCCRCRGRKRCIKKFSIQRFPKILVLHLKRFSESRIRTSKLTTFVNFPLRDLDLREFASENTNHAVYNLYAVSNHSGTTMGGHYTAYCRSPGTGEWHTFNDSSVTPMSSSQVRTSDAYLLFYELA
Procedure, shortened: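 His-tagged catalytic domain expressed in E. coli and Ni/gel-filtration purified; assayed in 50 mM HEPES pH 7.6 or 40 mM Tris pH 7.4 with 1 mM DTT. Compound added just before Ub-AMC or Ub-Rho substrate; fluorescence from hydrolysis followed over 20 or 30 min, median of duplicates.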

[9] = Ub-AMC substrate at 1 μM, Table 2b
[10] = Ub-Rhodamine substrate at 0.1 μM, Table 2c

inhibition at 0.01 µM ([7]; 0.01 μM compound, Table 1d): -15% | inhibition at 0.05 µM ([7]; 0.05 μM compound, Table 1d): 24% | inhibition at 0.1 µM ([7]; 0.1 μM compound, Table 1d): 12% | inhibition at 0.5 µM ([7]; 0.5 μM compound, Table 1d): 51% | inhibition at 1 µM ([7]; Table 1b): 85% | inhibition at 1 µM ([7]; Table 1d): 86% | inhibition at 5 µM ([7]; Table 1b): 102% | inhibition at 5 µM ([7]; Table 1d): 104% | inhibition at 10 µM ([7]; 10 μM compound, Table 1d): 110% | inhibition at 25 µM ([7]; 25 μM compound, Table 1b): 104% | inhibition at 50 µM ([7]; 50 μM compound, Table 1b): 106% | IC50 [7, 9]: 0.5 µM | IC50 [7, 10]: 0.08 µM | inhibition at 0.01 µM ([8]; 0.01 μM compound, Table 1c): 11% | inhibition at 0.05 µM ([8]; 0.05 μM compound, Table 1c): 6% | inhibition at 0.1 µM ([8]; 0.1 μM compound, Table 1c): -26% | inhibition at 0.5 µM ([8]; 0.5 μM compound, Table 1c): 2% | inhibition at 1 µM ([8]; Table 1b): 51% | inhibition at 1 µM ([8]; Table 1c): 31% | inhibition at 5 µM ([8]; Table 1b): 75% | inhibition at 5 µM ([8]; Table 1c): 51% | inhibition at 10 µM ([8]; 10 μM compound, Table 1c): 57% | inhibition at 25 µM ([8]; 25 μM compound, Table 1b): 99% | inhibition at 50 µM ([8]; 50 μM compound, Table 1b): 100% | IC50 [8, 9]: 5 µM | IC50 [8, 10]: 0.6 µM
Structure (SMILES): CCS(=O)(=O)Cc1nc2c(nc1CS(=O)(=O)CC)C(=O)c1ccccc1C2=O [VIN6075]
EC50 [1]: > 3 µM | EC50 [2]: 3 µM | EC50 [3]: 2.8 µM | EC50 [4]: > 3 µM | EC50 [5]: 3 µM | EC50 [6]: > 3 µM
